Where “and” joins values, the source holds several entries; their conditions need not be identical. Equal values may be shown once.
What was measured:
[1] = tested on: human monocytic leukemia U937 cells; test: necroptosis assay in U937 cells; assay type: cell-based; details: Homo sapiens, U-937, U937 cells; viability by cellular ATP (Cell Titer-Glo); read-out: pIC50, inhibited necrosis in U937 cells (converted)
Outline: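 Necroptosis was induced in human U937 or mouse L929 cells, and viability was quantified as cellular ATP with Cell Titer-Glo. Data are means±standard deviation.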

RIP1 kinase = biological target: T1, RIP1 kinase (Homo sapiens, UniProt Q13546); test: fluorescent polarization based binding assay; details: mean of a minimum of 2 experiments
T1 sequence (Q13546 1-375 limits assumed): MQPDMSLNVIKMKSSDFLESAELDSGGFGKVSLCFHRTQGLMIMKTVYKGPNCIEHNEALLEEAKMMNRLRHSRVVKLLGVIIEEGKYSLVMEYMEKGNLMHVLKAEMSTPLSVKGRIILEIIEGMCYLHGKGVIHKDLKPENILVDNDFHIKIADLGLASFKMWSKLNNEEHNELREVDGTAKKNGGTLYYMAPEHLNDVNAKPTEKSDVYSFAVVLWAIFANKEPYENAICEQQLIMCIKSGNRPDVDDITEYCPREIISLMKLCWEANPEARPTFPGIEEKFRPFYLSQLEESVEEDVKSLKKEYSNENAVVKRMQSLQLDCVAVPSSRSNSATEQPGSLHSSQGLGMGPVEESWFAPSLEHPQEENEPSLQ
Text: A fluorescent polarization based binding assay was used to assess the activity of the compounds of this invention, the details of which are disclosed in International Patent Appln. No. PCT/IB2014/059004, now, International Patent Appln. Pub.

Structure (SMILES)	IC50 (RIP1 kinase)	IC50 [1]
N#Cc1nccnc1N1CCC(C(=O)N2N=CC[C@H]2c2ccccc2)CC1 [Example 44, (S)-3-(4-(5-phenyl-4,5-dihydro-1H-pyrazole-1-carbonyl)piperidin-1-yl)pyrazine-2-carbonitrile]	1 to 31.6 nM and 1 to 10 nM	1 to 100 nM
COc1cc(N2CCC(C(=O)N3N=CC[C@H]3c3cc(F)cc(F)c3)CC2)ncn1 [Example 91, (S)-(5-(3,5-difluorophenyl)-4,5-dihydro-1H-pyrazol-1-yl)(1-(6-methoxypyrimidin-4-yl)piperidin-4-yl)methanone]	1 to 31.6 nM and 1 to 10 nM	1 to 100 nM
COc1cc(N2CCC(C(=O)N3N=CC[C@H]3c3cc(F)ccc3F)CC2)ncn1 [Example 105, (S)-(5-(2,5-difluorophenyl)-4,5-dihydro-1H-pyrazol-1-yl)(1-(6-methoxypyrimidin-4-yl)piperidin-4-yl)methanone]	1 to 31.6 nM and 1 to 10 nM	1 to 100 nM
N#Cc1cccc([C@@H]2CC=NN2C(=O)C2CCN(c3ccc4nccn4n3)CC2)c1 [Example 73, (S)-3-(1-(1-(imidazo[1,2-b]pyridazin-6-yl)piperidine-4-carbonyl)-4,5-dihydro-1H-pyrazol-5-yl)benzonitrile]	1 to 31.6 nM	1 to 100 nM
O=C(NC1CCNCC1)c1ccnc(N2CCC(C(=O)N3N=CC[C@H]3c3ccccc3)CC2)n1 [Example 147, (S)-2-(4-(5-phenyl-4,5-dihydro-1H-pyrazole-1-carbonyl)piperidin-1-yl)-N-(piperidin-4-yl)pyrimidine-4-carboxamide]	1 to 31.6 nM	1 to 100 nM
Nc1nc(N2CCC(C(=O)N3N=CC[C@H]3c3cncc(F)c3)CC2)ncc1F [Example 112, (S)-(1-(4-amino-5-fluoropyrimidin-2-yl)piperidin-4-yl)(5-(5-fluoropyridin-3-yl)-4,5-dihydro-1H-pyrazol-1-yl)methanone]	1 to 31.6 nM	1 to 100 nM
N#Cc1cnc(N2CCC(C(=O)N3N=CC[C@H]3c3ccccc3)CC2)o1 [Example 138, (S)-2-(4-(5-phenyl-4,5-dihydro-1H-pyrazole-1-carbonyl)piperidin-1-yl)oxazole-5-carbonitrile]	1 to 31.6 nM and 1 to 10 nM	1 to 100 nM
COc1cnc(N2CCC(C(=O)N3N=CC[C@H]3c3ccccc3)CC2)nc1 [Example 13, (S)-(1-(5-methoxypyrimidin-2-yl)piperidin-4-yl)(5-phenyl-4,5-dihydro-1H-pyrazol-1-yl)methanone]	1 to 31.6 nM and 1 to 10 nM	1 to 100 nM
N#Cc1cnc(N2CCC(C(=O)N3N=CC[C@H]3c3cc(F)ccc3F)CC2)cn1 [Example 103, (S)-5-(4-(5-(2,5-difluorophenyl)-4,5-dihydro-1H-pyrazole-1-carbonyl)piperidin-1-yl)pyrazine-2-carbonitrile]	1 to 31.6 nM and 1 to 10 nM	1 to 100 nM
N#Cc1nccc(N2CCC(C(=O)N3N=CC[C@H]3c3cncc(F)c3)CC2)n1 [Example 115, (S)-4-(4-(5-(5-fluoropyridin-3-yl)-4,5-dihydro-1H-pyrazole-1-carbonyl)piperidin-1-yl)pyrimidine-2-carbonitrile]	1 to 31.6 nM	1 to 100 nM
N#Cc1cnc(N2CCC(C(=O)N3N=CC[C@H]3c3ccccc3)CC2)cn1 [Example 40, (S)-5-(4-(5-phenyl-4,5-dihydro-1H-pyrazole-1-carbonyl)piperidin-1-yl)pyrazine-2-carbonitrile]	1 to 31.6 nM and 1 to 10 nM	1 to 100 nM
NC(=O)Cc1nc(N2CCC(C(=O)N3N=CC[C@H]3c3ccccc3)CC2)ncc1F [Example 169, (S)-2-(5-fluoro-2-(4-(5-phenyl-4,5-dihydro-1H-pyrazole-1-carbonyl)piperidin-1-yl)pyrimidin-4-yl)acetamide]	1 to 31.6 nM and 1 to 10 nM	1 to 100 nM
O=C(C1CCN(c2ccnc(C(F)(F)F)n2)CC1)N1N=CC[C@H]1c1ccccc1 [Example 46, (S)-(5-phenyl-4,5-dihydro-1H-pyrazol-1-yl)(1-(2-(trifluoromethyl)pyrimidin-4-yl)piperidin-4-yl)methanone]	1 to 31.6 nM and 1 to 10 nM	1 to 100 nM
Cc1nc(N)cc(N2CCC(C(=O)N3N=CC[C@H]3c3ccccc3)CC2)n1 [Example 33, (S)-(1-(6-amino-2-methylpyrimidin-4-yl)piperidin-4-yl)(5-phenyl-4,5-dihydro-1H-pyrazol-1-yl)methanone]	1 to 31.6 nM	1 to 100 nM
CC(=O)N1CCC(NC(=O)c2ccnc(N3CCC(C(=O)N4N=CC[C@H]4c4ccccc4)CC3)n2)CC1 [Example 144, (S)-N-(1-acetylpiperidin-4-yl)-2-(4-(5-phenyl-4,5-dihydro-1H-pyrazole-1-carbonyl)piperidin-1-yl)pyrimidine-4-carboxamide]	1 to 31.6 nM	1 to 100 nM
O=C(C1CCN(c2ncc3[nH]cnc3n2)CC1)N1N=CC[C@H]1c1cc(F)cc(F)c1 [Example 139, (S)-(1-(7H-purin-2-yl)piperidin-4-yl)(5-(3,5-difluorophenyl)-4,5-dihydro-1H-pyrazol-1-yl)methanone]	1 to 31.6 nM	1 to 100 nM

Further lines, with some results ahead:

IC50 (RIP1 kinase)	Structure (SMILES)	IC50 [1]
1 to 31.6 nM and 1 to 10 nM	O=C(C1CCN(c2ccc3nccn3n2)CC1)N1N=CC[C@H]1c1ccccc1 [Example 22, (S)-(1-(imidazo[1,2-b]pyridazin-6-yl)piperidin-4-yl)(5-phenyl-4,5-dihydro-1H-pyrazol-1-yl)methanone]	1 to 100 nM
1 to 31.6 nM	N#Cc1cccc([C@@H]2CC=NN2C(=O)C2CCN(c3cc(C(N)=O)ncn3)CC2)c1 [Example 70, (S)-6-(4-(5-(3-cyanophenyl)-4,5-dihydro-1H-pyrazole-1-carbonyl)piperidin-1-yl)pyrimidine-4-carboxamide]	1 to 100 nM
1 to 31.6 nM and 1 to 10 nM	N#Cc1coc(N2CCC(C(=O)N3N=CC[C@H]3c3ccccc3)CC2)n1 [Example 137, (S)-2-(4-(5-phenyl-4,5-dihydro-2H-pyrazole-1-carbonyl)piperidin-1-yl)oxazole-4-carbonitrile]	1 to 100 nM
1 to 31.6 nM	N#Cc1cncc(N2CCC(C(=O)N3N=CC[C@H]3c3ccccc3)CC2)n1 [Example 47, (S)-6-(4-(5-phenyl-4,5-dihydro-1H-pyrazole-1-carbonyl)piperidin-1-yl)pyrazine-2-carbonitrile]	1 to 100 nM
1 to 31.6 nM	COc1ccc(N2CCC(C(=O)N3N=CC[C@H]3c3ccccc3)CC2)nn1 [Example 49, (S)-(1-(6-methoxypyridazin-3-yl)piperidin-4-yl)(5-phenyl-4,5-dihydro-1H-pyrazol-1-yl)methanone]	1 to 100 nM
1 to 31.6 nM	N#Cc1cnc(N2CCC(C(=O)N3N=CCC3c3ccccc3)CC2)nc1 (racemic) [Example 2, 2-(4-(5-phenyl-4,5-dihydro-1H-pyrazole-1-carbonyl)piperidin-1-yl)pyrimidine-5-carbonitrile]	1 to 100 nM
1 to 31.6 nM and 1 to 10 nM	CC(=O)Nc1cncc(N2CCC(C(=O)N3N=CC[C@H]3c3ccccc3)CC2)n1 [Example 64, (S)-N-(6-(4-(5-phenyl-4,5-dihydro-1H-pyrazole-1-carbonyl)piperidin-1-yl)pyrazin-2-yl)acetamide]	1 to 100 nM
1 to 31.6 nM	CNc1ccnc(N2CCC(C(=O)N3N=CC[C@H]3c3ccccc3)CC2)n1 [Example 16, (S)-(1-(4-(methylamino)pyrimidin-2-yl)piperidin-4-yl)(5-phenyl-4,5-dihydro-1H-pyrazol-1-yl)methanone]	1 to 100 nM
